Test system: E. coli (ATCC 8739)
Experiment: Zone of Inhibition (ZOI), sample pellets on agar
Conditions: for diameter of the ZOI: pellets with 20 wt % cellulose binder (Tables 1 and 2)
[1] = E. coli, 24 h incubation at 37° C.

Experimental: Zone of Inhibition (ZOI). […] The cultures were streaked on Luria Agar (LB) plates and incubated overnight at 37° C. […] 50 μL of this stock suspension was spread homogeneously on a trypticase soy agar (TSA) plate (diameter 10 cm).

Substance | diameter of the ZOI [1] | antimicrobial efficacy in the zone of inhibition testing (compound alone) | Zone of Inhibition Diameter (mm) Avg (E. coli, 24 h incubation at 37° C., cellulose binder, average of 3 trials) [mm]
Zinc borate | No ZOI | no significant antimicrobial efficacy | 
molybdenum (VI) oxide [molybdenum oxide] | 19 mm |  | 
basic copper(II) carbonate [BCC] |  |  | 12

From patent US20260234351A1, “ANTIMICROBIAL POLYMER FOAMS COMPRISING A SYNERGISTIC BLEND OF COMPONENTS” (Cupron Performance Additives, Inc., priority 2023, published 2026)
